Data from patent publication US20050070437A1, “Herbicide combinations comprising specific sulfonamides” (Bayer CropScience GmbH, priority 2003, published 2005).

Columns and labels:
Veronica hederifolia = assay: Herbicidal action (field trials), visual scoring of harmful plant; type: in vivo; details: field trial, natural outdoor conditions; scored visually about 4 weeks after application vs untreated plots; mean of 2-4 plots; application rate g of active substance/hectare: A 5, B 25, C 50 (A + B 5 + 25; A + B + C 5 + 25 + 50)
Description: (§1) The seeds or rhizome pieces of the harmful plants and the useful plants were laid out or were present in the soil, and they were grown under natural outdoor conditions. Treatment with the active compounds or active compound combinations was carried out […] before and/or after the emergence of the plants, generally at the 2- to 4-leaf stage, in various dosages using a water application rate of 100 to 400 l/ha (converted).
(§2) After the application (about 4 weeks after the application), the effectiveness of the active compounds or active compound combinations was scored visually by comparing the treated plots to untreated control plots. During scoring, damage and development of all above-ground parts of plants was assessed. Scoring was carried out using a percentage scale (100% effect=all plants have died; 50% effect=50% of the plants and the green parts of the plants have died; 0% effect=no effect observed=like control plot). In each case, the mean score of 2-4 plots was calculated.
(§3) The results are shown in the table below; the effect of the individual application of active compounds (A+B) and C being stated in brackets.

Triticum aestivum = type: in vivo; details: field trial, natural outdoor conditions; scored visually about 4 weeks after application vs untreated plots; mean of 2-4 plots; application rate g of active substance/hectare: A 5, B 25, C 50 (A + B 5 + 25; A + B + C 5 + 25 + 50)
Description: as §1, §2, §3

In the case of `O=C(Nc1ccc(F)cc1F)c1cccnc1Oc1cccc(C(F)(F)F)c1` [diflufenican, 2′,4′-difluoro-2-(α,α,α-trifluoro-m-tolyloxy)nicotinanilide], the “Veronica hederifolia % effect” value (Veronica hederifolia) is reported as 40% and the “Triticum aestivum % damage” value (Triticum aestivum) is reported as 0%.
`CCCOc1nn(C(=O)[N-]S(=O)(=O)c2ccccc2C(=O)OC)c(=O)n1C.[Na+]` [propoxycarbazone-sodium] was tested, and the “Veronica hederifolia % effect” value (Veronica hederifolia) was 28% and the “Triticum aestivum % damage” value (Triticum aestivum) was 2%.
`COC(=O)c1ccc(I)cc1S(=O)(=O)[N-]C(=O)Nc1nc(C)nc(OC)n1.[Na+]` [iodosulfuron-methyl-sodium] was tested, and the “Veronica hederifolia % effect” value (Veronica hederifolia) was 15% and the “Triticum aestivum % damage” value (Triticum aestivum) was 1%.
